Test results reported in article PMC9154192 (PLoS Biology, 2022).
≈ marks a conversion by molar mass, not a printed value.

Tests used:
M. abscessus = assay: microbe, parasite or virus in culture; assay type: cell-based, Mycobacterium abscessus; settings: Mycobacteroides abscessus
M. conceptionense = assay: microbe, parasite or virus in culture; assay type: cell-based, Mycobacterium conceptionense; settings: Mycolicibacterium senegalense
M. bovis = assay: microbe, parasite or virus in culture; assay type: cell-based; settings: Mycobacterium tuberculosis variant bovis
M. massiliense = assay: microbe, parasite or virus in culture; assay type: cell-based, Mycobacterium massiliense; settings: Mycobacteroides abscessus
M. szulgai = assay: microbe, parasite or virus in culture; assay type: cell-based; settings: Mycobacterium szulgai
M. phocaicum = assay: microbe, parasite or virus in culture; assay type: cell-based, Mycobacterium phocaicum; settings: Mycolicibacterium phocaicum
M. chitae = assay: microbe, parasite or virus in culture; assay type: cell-based, Mycobacterium chitae; settings: Mycolicibacterium chitae
M. peregrinum = assay: microbe, parasite or virus in culture; assay type: cell-based, Mycobacterium peregrinum; settings: Mycolicibacterium peregrinum
M. xenopi = assay: microbe, parasite or virus in culture; assay type: cell-based; settings: Mycobacterium xenopi
M. arupense = assay: microbe, parasite or virus in culture; assay type: cell-based, Mycobacterium arupense; settings: Mycolicibacter arupensis
M. aubagnense = assay: microbe, parasite or virus in culture; assay type: cell-based, Mycobacterium aubagnense; settings: Mycolicibacterium aubagnense
M. intracellulare = assay: microbe, parasite or virus in culture; assay type: cell-based; settings: Mycobacterium intracellulare
M. kansasii = assay: microbe, parasite or virus in culture; assay type: cell-based; settings: Mycobacterium kansasii
Rhizopus oryzae = assay: Broth dilution MIC (CLSI); assay type: cell-based; settings: Rhizopus arrhizus; Rhizopus oryzae; read-out: MIC
Excerpt: (§1) Bacteria (Acinetobacter baumannii NCCP 14782, Citrobacter freundii NCCP 14766, Enterobacter aerogenes NCCP 14761, Escherichia coli NCCP 14762, Escherichia coli O157 NCCP 14541, Klebsiella pneumoniae NCCP 14764, Proteus mirabilis NCCP 14763, Proteus vulgaris NCCP 14765, Pseudomonas aeruginosa NCCP 14781, Salmonella Enteritidis NCCP 14771, Salmonella Paratyphi A NCCP 14759, Salmonella Typhimurium NCCP 16207, Serratia marcescens NCCP 14770, Shigella boydii NCCP 14745, Shigella dysenteriae NCCP 14746, Shigella flexneri NCCP 14744, Shigella sonnei NCCP 14773, Bacillus subtilis NCCP 11101, Corynebacterium diphtheriae NCCP 10353, Staphylococcus aureus MSSA NCCP 14780, Staphylococcus aureus MRSA NCCP 14769, Staphylococcus epidermidis NCCP 14768, Streptococcus pneumoniae NCCP 14774) and fungi (Aspergillus fumigatus NCCP 22454, Candida albicans NCCP 32557, Cryptococcus neoformans NCCP 32559, Microsporum canis NCCP 22454, Rhizopus oryzae NCCP 22458, Saccharomyces cerevisiae NCCP 32558, Trichophyton rubrum NCCP 22456) strains were obtained from the National Culture Collection for Pathogens (NCCP) (Chungbuk, Korea). The MIC of each agent was determined following the Clinical and Laboratory Standards Institute (CLSI).[40]

Salmonella Enteritidis = assay: Broth dilution MIC (CLSI); assay type: cell-based; settings: Salmonella enterica; Salmonella Enteritidis; read-out: MIC
Excerpt: as §1

[1] = test system: Staphylococcus aureus, MRSA; assay: Broth dilution MIC (CLSI); assay type: cell-based; settings: read-out: MIC
Excerpt: as §1

[2] = test system: Staphylococcus aureus, MSSA; assay: Broth dilution MIC (CLSI); assay type: cell-based; settings: read-out: MIC
Excerpt: as §1

[3] = test system: Corynebacterium diphtheriae; assay: Broth dilution MIC (CLSI); assay type: cell-based; settings: read-out: MIC
Excerpt: as §1

Cryptococcus neoformans = assay: Broth dilution MIC (CLSI); assay type: cell-based; settings: read-out: MIC
Excerpt: as §1

Shigella sonnei = assay: Broth dilution MIC (CLSI); assay type: cell-based; settings: read-out: MIC
Excerpt: as §1

Salmonella Paratyphi A = assay: Broth dilution MIC (CLSI); assay type: cell-based; settings: Salmonella enterica; Salmonella Paratyphi A; read-out: MIC
Excerpt: as §1

Proteus vulgaris = assay: Broth dilution MIC (CLSI); assay type: cell-based; settings: read-out: MIC
Excerpt: as §1

Enterobacter aerogenes = assay: Broth dilution MIC (CLSI); assay type: cell-based; settings: Klebsiella aerogenes; Enterobacter aerogenes; read-out: MIC
Excerpt: as §1

Shigella boydii = assay: Broth dilution MIC (CLSI); assay type: cell-based; settings: read-out: MIC
Excerpt: as §1

Citrobacter freundii = assay: Broth dilution MIC (CLSI); assay type: cell-based; settings: read-out: MIC
Excerpt: as §1

Pseudomonas aeruginosa = assay: Broth dilution MIC (CLSI); assay type: cell-based; settings: read-out: MIC
Excerpt: as §1

Microsporum canis = assay: Broth dilution MIC (CLSI); assay type: cell-based; settings: read-out: MIC
Excerpt: as §1

Salmonella Typhimurium = assay: Broth dilution MIC (CLSI); assay type: cell-based; settings: Salmonella enterica; Salmonella Typhimurium; read-out: MIC
Excerpt: as §1

M. smegmatis = assay: microbe, parasite or virus in culture; assay type: cell-based, Mycobacterium smegmatis; settings: Mycolicibacterium smegmatis
M. goodie = assay: microbe, parasite or virus in culture; assay type: cell-based; settings: Mycobacterium
M. phlei = assay: microbe, parasite or virus in culture; assay type: cell-based, Mycobacterium phlei; settings: Mycolicibacterium phlei
M. kyorinense = assay: microbe, parasite or virus in culture; assay type: cell-based; settings: Mycobacterium kyorinense
M. gordonae = assay: microbe, parasite or virus in culture; assay type: cell-based; settings: Mycobacterium gordonae
M. fortuitum = assay: microbe, parasite or virus in culture; assay type: cell-based, Mycobacterium fortuitum; settings: Mycolicibacterium fortuitum
M. marinum = assay: microbe, parasite or virus in culture; assay type: cell-based; settings: Mycobacterium marinum
M. bolletii = assay: microbe, parasite or virus in culture; assay type: cell-based, Mycobacterium bolletii; settings: Mycobacteroides abscessus
M. neoaurum = assay: microbe, parasite or virus in culture; assay type: cell-based, Mycobacterium neoaurum; settings: Mycolicibacterium neoaurum
M. gilvum = assay: microbe, parasite or virus in culture; assay type: cell-based, Mycobacterium gilvum; settings: Mycolicibacterium gilvum
[4] = test system: clinically isolated MDR, XDR, and TDR M. tuberculosis strains; assay: microbe, parasite or virus in culture; assay type: cell-based; settings: Mycobacterium tuberculosis
M. marseiliense = assay: microbe, parasite or virus in culture; assay type: cell-based; settings: Mycobacterium
M. heraklionease = assay: microbe, parasite or virus in culture; assay type: cell-based; settings: Mycobacterium

Structure (SMILES): NNC(=O)c1ccncc1 [INH, isoniazid, reference compound]
- MIC (M. abscessus): > 100 µg/mL
- MIC (M. conceptionense): 25 µg/mL (≈ 182 µM)
- MIC (M. bovis): 0.2 µg/mL (≈ 1.46 µM)
- MIC (M. massiliense): 12.5 µg/mL (≈ 91.1 µM)
- MIC (M. szulgai): 1.6 µg/mL (≈ 11.7 µM)
- MIC (M. phocaicum): > 100 µg/mL
- MIC (M. chitae): 12.5 µg/mL (≈ 91.1 µM)
- MIC (M. peregrinum): 6.3 µg/mL (≈ 45.9 µM)
- MIC (M. xenopi): 1.6 µg/mL (≈ 11.7 µM)
- MIC (M. arupense): 50 µg/mL (≈ 365 µM)
- MIC (M. aubagnense): > 100 µg/mL
- MIC (M. intracellulare): 25 µg/mL (≈ 182 µM)
- MIC (M. kansasii): 0.2 µg/mL (≈ 1.46 µM)
- MIC (Rhizopus oryzae): > 100 µg/mL
- MIC (Salmonella Enteritidis): > 100 µg/mL
- MIC [1]: > 100 µg/mL
- MIC [2]: > 100 µg/mL
- MIC [3]: > 100 µg/mL
- MIC (Cryptococcus neoformans): > 100 µg/mL
- MIC (Shigella sonnei): > 100 µg/mL
- MIC (Salmonella Paratyphi A): > 100 µg/mL
- MIC (Proteus vulgaris): > 100 µg/mL
- MIC (Enterobacter aerogenes): > 100 µg/mL
- MIC (Shigella boydii): > 100 µg/mL
- MIC (Citrobacter freundii): > 100 µg/mL
- MIC (Pseudomonas aeruginosa): > 100 µg/mL
- MIC (Microsporum canis): > 100 µg/mL
- MIC (Salmonella Typhimurium): > 100 µg/mL
- MIC (M. smegmatis): 25 µg/mL (≈ 182 µM)
- MIC (M. goodie): 25 µg/mL (≈ 182 µM)
- MIC (M. phlei): > 100 µg/mL
- MIC (M. kyorinense): 3.1 µg/mL (≈ 22.6 µM)
- MIC (M. gordonae): > 100 µg/mL
- MIC (M. fortuitum): 25 µg/mL (≈ 182 µM)
- MIC (M. marinum): 25 µg/mL (≈ 182 µM)
- MIC (M. bolletii): > 100 µg/mL
- MIC (M. neoaurum): 3.1 µg/mL (≈ 22.6 µM)
- MIC (M. gilvum): 12.5 µg/mL (≈ 91.1 µM)
- MIC ([4]; TDR-1): 12.5 µg/mL (≈ 91.1 µM)
- MIC ([4]; TDR-2): 6.3 µg/mL (≈ 45.9 µM)
- MIC ([4]; TDR-3): 12.5 µg/mL (≈ 91.1 µM)
- MIC (M. marseiliense): > 100 µg/mL
- MIC (M. heraklionease): > 100 µg/mL

Structure (SMILES): [H]/N=C(/N)N[C@H]1[C@H](O)[C@@H](O)[C@H](O[C@@H]2O[C@@H](C)[C@](O)(C=O)[C@H]2O[C@@H]2O[C@@H](CO)[C@H](O)[C@@H](O)[C@@H]2NC)[C@@H](N/C(N)=N\[H])[C@@H]1O [STR, streptomycin]
- MIC (M. abscessus): 25 µg/mL (≈ 43 µM)
- MIC (M. conceptionense): 3.1 µg/mL (≈ 5.33 µM)
- MIC (M. bovis): 0.4 µg/mL (≈ 0.688 µM)
- MIC (M. massiliense): 0.8 µg/mL (≈ 1.38 µM)
- MIC (M. szulgai): 0.2 µg/mL (≈ 0.344 µM)
- MIC (M. phocaicum): 6.3 µg/mL (≈ 10.8 µM)
- MIC (M. chitae): > 100 µg/mL
- MIC (M. peregrinum): 3.1 µg/mL (≈ 5.33 µM)
- MIC (M. xenopi): 0.2 µg/mL (≈ 0.344 µM)
- MIC (M. arupense): 0.1 µg/mL (≈ 0.172 µM)
- MIC (M. aubagnense): > 100 µg/mL
- MIC (M. intracellulare): 0.8 µg/mL (≈ 1.38 µM)
- MIC (M. kansasii): 0.2 µg/mL (≈ 0.344 µM)
- MIC (Rhizopus oryzae): > 100 µg/mL
- MIC (Salmonella Enteritidis): 3.1 µg/mL (≈ 5.33 µM)
- MIC [1]: 3.1 µg/mL (≈ 5.33 µM)
- MIC [2]: 6.3 µg/mL (≈ 10.8 µM)
- MIC [3]: 3.1 µg/mL (≈ 5.33 µM)
- MIC (Cryptococcus neoformans): > 100 µg/mL
- MIC (Shigella sonnei): 3.1 µg/mL (≈ 5.33 µM)
- MIC (Salmonella Paratyphi A): 6.3 µg/mL (≈ 10.8 µM)
- MIC (Proteus vulgaris): 25 µg/mL (≈ 43 µM)
- MIC (Enterobacter aerogenes): 3.1 µg/mL (≈ 5.33 µM)
- MIC (Shigella boydii): 25 µg/mL (≈ 43 µM)
- MIC (Citrobacter freundii): 1.6 µg/mL (≈ 2.75 µM)
- MIC (Pseudomonas aeruginosa): 25 µg/mL (≈ 43 µM)
- MIC (Microsporum canis): > 100 µg/mL
- MIC (Salmonella Typhimurium): 25 µg/mL (≈ 43 µM)
- MIC (M. smegmatis): 0.2 µg/mL (≈ 0.344 µM)
- MIC (M. goodie): 0.2 µg/mL (≈ 0.344 µM)
- MIC (M. phlei): 0.2 µg/mL (≈ 0.344 µM)
- MIC (M. kyorinense): 0.8 µg/mL (≈ 1.38 µM)
- MIC (M. gordonae): 100 µg/mL (≈ 172 µM)
- MIC (M. fortuitum): 6.3 µg/mL (≈ 10.8 µM)
- MIC (M. marinum): < 0.1 µg/mL
- MIC (M. bolletii): 25 µg/mL (≈ 43 µM)
- MIC (M. neoaurum): 0.8 µg/mL (≈ 1.38 µM)
- MIC (M. gilvum): 0.2 µg/mL (≈ 0.344 µM)
- MIC ([4]; TDR-1): 50 µg/mL (≈ 86 µM)
- MIC ([4]; TDR-2): > 100 µg/mL
- MIC ([4]; TDR-3): 50 µg/mL (≈ 86 µM)
- MIC (M. marseiliense): 25 µg/mL (≈ 43 µM)
- MIC (M. heraklionease): 50 µg/mL (≈ 86 µM)
